Reference: patent publication US8507440B2, “Protein kinase C peptides for use in withdrawal” (The Board of Trustees of the Leland Stanford Junior …, priority 2002, dated 2013)
Read-outs that look alike come from different tables or passages of the source.

Columns and labels:
in vivo = conditions: rat, 4 g/kg
γPKC [1] = molecular target: T1, γPKC (Rattus norvegicus, UniProt P63319); type: cell-based; conditions: after application of ethanol 100 mM; control about 14
T1 construct: from tissue; host or cells: lumbar spinal cord slices of postnatal day 7-10 Sprague-Dawley rats
Method: Fluorescence immunocytochemical studies were performed on the spinal cord sections, as described in Example 3. The sections were incubated with an anti-γPKC antibody and an anti-neuronal antibody to identify neurons. […] Translocation of γPKC was quantified by counting the number of cells with γPKC localized to the nucleus before (control) and after application of ethanol, as well as after washing with artificial cerebrospinal fluid. […] Two to three sections per animal were counted.
Fluorescence immunocytochemical studies were performed on spinal cord sections […] from control slices (perfused with ACSF for 70 minutes) and EtOH treated slices (perfused with ACSF for 30 minutes followed by 20 min 100 mM EtOH and 20 min wash with ACSF). The sections were incubated with a rabbit anti-PKCg polyclonal antibody (1:500) overnight at 4° C. In some cord sections, a mouse anti-neuronal nuclei monoclonal antibody (NeuN, 1:750) was added to identify neurons. After several washes with ACSF, the sections were labeled for 2 hours at room temperature with fluorescein-labeled secondary antibodies (1:500). Double immunofluorescence was assessed with a laser confocal microscope.

[2] = test system: N-methyl-D-aspartate (NMDA) receptor currents; experiment: alcohol withdrawal hyperresponsiveness of NMDA-evoked currents in lumbar spinal cord slice motor neurons; type: cell-based, rat; conditions: 100 mM EtOH, n=11 motor neurons
Excerpt: Spinal cords were taken from young rats, and slices of these cords were made and placed in artificial cerebrospinal fluid for patch clamp electrophysiological analysis, to characterize the ability of γPKC peptides to mediate alcohol withdrawal hyperresponsiveness of N-methyl-D-aspartate (NMDA) receptor currents. FIG. 7A is a schematic diagram of the technique, where a lumbar spinal cord slice 10 is shown. The placement of a recording electrode 12 and a pipette 14 for application of NMDA relative to a motor neuron 16 is illustrated.
Sprague-Dawley rats at postnatal day 7-10 were anesthetized with halothane, decapitated, and the spinal cords were quickly removed. Slices […] thick were sectioned from the lumbar region. Whole cell voltage clamp recordings were made from visually-identified motor neurons using infrared video microscopy, a 60× water immersion lens, and a MultiClamp 700A patch clamp amplifier. Cells were held at a holding potential of −60 mV in artificial cerebrospinal fluid (ACSF) containing bicuculline methiodide ([…]), strychnine ([…]), and tetrodotoxin ([…]). Postsynaptic currents were evoked by direct pressure application of 2 mM N-methyl-D-aspartate (NMDA) from a pipette positioned near the recorded cell at 1-2 min intervals, as illustrated in FIG. 7A. The area of evoked currents during and following 100 mM ethanol (EtOH) application was measured and normalized to the average baseline current area during the 10 minutes preceding EtOH application. Data are expressed as mean +/−SEM: Statistical significance was determined by one-way ANOVA followed by Dunn's or Tukey's multiple comparison test with significance set at p<0.05.

[3] = test system: 7 day old and 21 day old rats; experiment: ethanol withdrawal thermal hyperalgesia testing (paw withdrawal latency); type: in vivo, rat; conditions: 4 g/kg 15% EtOH
[4] = test system: 7 day old and 21 day old rats; experiment: ethanol withdrawal mechanical allodynia testing (von Frey threshold withdrawal force); type: in vivo, rat
[5] = for maximal blood EtOH concentration: 30 minutes post 4 g/kg 15% EtOH; for maximal EtOH concentration in spinal cord: 4 g/kg 15% EtOH
γPKC [6] = test system: γPKC
Method: (§1) To determine if EtOH alters the expression and cellular localization of εPKC and γPKC, immunohistochemistry was performed on L4/5 dorsal root ganglion (DRG) and L4/5 lumbar spinal cord sections, as described in Example 4. Rat at postnatal days 7 and 21, treated with saline or 4 g/kg 15% EtOH, were euthanized at 2, 4, or 6 hours post injection for isolation of the lumbar spinal cords.
(§2) Animals administered a single dose of 4 g/kg 15% EtOH or saline (i.p.) were deeply anesthetized with halothane and euthanized at 2, 4, or 6 hours post injection by transcardiac perfusion (phosphate-buffered saline wash, followed by 4% formaldehyde in PBS, pH 7.4). Following perfusion, lumbar spinal cord and L4/L5 dorsal root ganglia (DRG) were isolated and post-fixed for 3 hours in 4% formaldehyde solution followed by cryoprotection in 30% sucrose/PBS at 4° C. Sections were freeze-mounted in OCT-embedding medium on cork blocks and stored at −80° C. until analysis. For spinal cord sections, free-floating immunohistochemistry was performed on 30 μm L4-L5 spinal sections. Dorsal root ganglia were cut on a cryostat at 10 μm and slide mounted. Slides were heated overnight at 32° C. Immunohistochemistry was performed utilizing an avidin-biotin complex (ABC) technique as previously described (Sweitzer et al., Brain Res., 829(1-2):209-221 (1999)). Rabbit polyclonal antibodies to γPKC (1:500 from Santa Cruz) or εPKC (1:1,000 from Santa Cruz) were used. Immunohistochemistry was scored blinded to experimental conditions.
(§3) For both spinal cord tissues and DRG, densitometry using ImageJ software was performed on at least three sections from each of three individual animals.

εPKC = test system: εPKC
Method: as §1, §2, §3

[7] = 21 day old rats, 4 g/kg and 0.5 g/kg 15% EtOH

half-life (in vivo; spinal cord, ip, T ½ Early, 7 day old rat, 4 g/kg 15% EtOH i.p.): 1.6 h | half-life (in vivo; spinal cord, ip, T ½ Early, 21 day old rat, 4 g/kg 15% EtOH i.p.): 1.5 h | half-life (in vivo; spinal cord, ip, T ½ Late, 7 day old rat, 4 g/kg 15% EtOH i.p.): 11.5 h | half-life (in vivo; spinal cord, ip, T ½ Late, 21 day old rat, 4 g/kg 15% EtOH i.p.): 11.7 h | half-life (in vivo; whole blood, intraperitoneal, extension of blood late phase half-life of 21 day old beyond 7 day old rats, blood): 4 h | half-life (in vivo; whole blood, ip, T ½ Early, Blood, 7 day old rat, 4 g/kg 15% EtOH i.p.): 1.9 h | half-life (in vivo; whole blood, ip, T ½ Early, Blood, 21 day old rat, 4 g/kg 15% EtOH i.p.): 1.7 h | half-life (in vivo; whole blood, ip, T ½ Late, Blood, 7 day old rat, 4 g/kg 15% EtOH i.p.): 18.1 h | half-life (in vivo; whole blood, ip, T ½ Late, Blood, 21 day old rat, 4 g/kg 15% EtOH i.p.): 22.5 h | number of cells having γPKC localized in the nucleus (γPKC [1]): about 6 | normalized NMDA current (INMDA) area after application of alcohol [2]: increases | time of peak spinal cord EtOH level ([5]; 7 day old and 21 day old rats, post injection): 30 min | maximal blood EtOH concentration ([5]; 7 day old pups): 5.91 ± 0.46 µg/mL | maximal EtOH concentration in spinal cord ([5]; 7 day old rats): 14.8 μg/mg tissue | maximal EtOH concentration in spinal cord ([5]; 21 day old rats): 11.4 μg/mg tissue | maximal blood EtOH concentration ([5]; 21 day old rats): 5.67 ± 0.60 µg/mL | time of peak blood EtOH concentration ([5]; both 7 day old and 21 day old rats, post-ethanol injection): 30 min | spinal cord later-phase half-life relative to half life for blood EtOH levels ([5]; rat, in vivo): 50%
SMILES: CCO [EtOH, ethanol]
thermal paw withdrawal latency after ethanol ([3]; 7 day old rats, 6 hours): Thermal hyperalgesia as evidenced by a decrease in paw withdrawal latency, was observed | thermal paw withdrawal latency after ethanol ([3]; 21 day old rats, entire time period): did not exhibit a decrease in paw withdrawal latency | threshold withdrawal force after ethanol ([4]; 7 day old rats, 1 g/kg 15% EtOH): did not significantly alter the threshold withdrawal force | paw threshold withdrawal force after ethanol ([4]; 7 day old rats, 4 g/kg 15% EtOH, 6 hours and 8 hours post injection): exhibited mechanical allodynia | threshold withdrawal force after ethanol ([4]; 7 day old rats, 4 g/kg 15% EtOH, two hour test interval): slight but insignificant increase in threshold withdrawal force | mechanical thresholds after ethanol [4, 7]: maximally decreased mechanical thresholds at 6 hours post EtOH injection | time withdrawal thresholds remained below baseline [4, 7]: up to 72 hours | γPKC cellular localization (γPKC [6]; 2 hours post-EtOH injection): had translocated to the plasma membrane | number of somata staining positive for γPKC above saline control levels (γPKC [6]; 7 day old rats, lamina II, 6 hours post injection of 4 g/kg 15% EtOH): 4 fold | γPKC staining intensity (γPKC [6]; 21 day old rats, 2 to 6 hours post-EtOH injection): γPKC staining intensity increased | cells staining positive for εPKC (εPKC; 7 day old rats, 2 hour exposure to 4 g/kg 15% EtOH): the percentage of cells staining positive for εPKC increased | cells staining positive for εPKC and staining intensity (εPKC; 21 day old rats, 4 g/kg 15% EtOH): did not result in an increase in the number of positive staining cells or in the staining intensity within positively stained cells
